What was measured:
[1] = tested on: Puccinia recondita f. Sp. Tritici; assay: Fungicidal activity against Puccinia recondita f. sp. tritici / wheat / leaf disc preventative (brown rust); format: in vivo; conditions: foliar, 200 ppm in the applied formulation, wheat leaf segments cv. Kanzler, preventative (inoculated 1 day after application), compared to untreated, read-out: disease control
Protocol: Leaf disks or leaf segments of various plant species are cut from plants grown in a greenhouse. The cut leaf disks or segments are placed in multiwell plates (24-well format) onto water agar. The leaf disks are sprayed with a test solution before (preventative) or after (curative) inoculation. Compounds to be tested are prepared as DMSO solutions (max. 10 mg/mL) which are diluted to the appropriate concentration with 0.025% Tween20 just before spraying. The inoculated leaf disks or segments are incubated under defined conditions (temperature, relative humidity, light, etc.) according to the respective test system. A single evaluation of disease level is carried out 3 to 14 days after inoculation, depending on the pathosystem. Percent disease control relative to the untreated check leaf disks or segments is then calculated. Wheat leaf segments cv. Kanzler were placed on agar in multiwell plates (24-well format) and sprayed with the formulated test compound diluted in water. The leaf disks were inoculated with a spore suspension of the fungus 1 day after application. The inoculated leaf segments were incubated at 19° C. and 75% relative humidity (rh) under a light regime of 12 hours light/12 hours darkness in a climate cabinet and the activity of a compound was assessed as percent disease control compared to untreated when an appropriate level of disease damage appears in untreated check leaf segments (7 to 9 days after application). The following compounds at 200 ppm in the applied formulation give at least 80% disease control in this test when compared to untreated control leaf disks under the same conditions, which show extensive disease development.

[2] = tested on: Glomerella lagenarium (Colletotrichum lagenarium); assay: Fungicidal activity against Glomerella lagenarium (Colletotrichum lagenarium) liquid culture / cucumber / preventative (anthracnose); format: cell-based; conditions: Colletotrichum orbiculare; 20 ppm in the applied formulation; liquid culture (PDB), inhibition of growth measured photometrically 3 to 4 days after application; compared to untreated; read-out: disease control
Protocol: Mycelia fragments or conidia suspensions of a fungus prepared either freshly from liquid cultures of the fungus or from cryogenic storage, are directly mixed into nutrient broth. DMSO solutions of the test compound (max. 10 mg/mL) are diluted with 0.025% Tween20 by a factor of 50 and 10 μL of this solution is pipetted into a microtiter plate (96-well format). The nutrient broth containing the fungal spores/mycelia fragments is then added to give an end concentration of the tested compound. The test plates are incubated in the dark at 24° C. and 96% relative humidity. The inhibition of fungal growth is determined photometrically after 2 to 7 days, depending on the pathosystem, and percent antifungal activity relative to the untreated check is calculated. Conidia of the fungus from cryogenic storage are directly mixed into nutrient broth (PDB—potato dextrose broth). After placing a (DMSO) solution of test compound into a microtiter plate (96-well format), the nutrient broth containing the fungal spores is added. The test plates are incubated at 24° C. and the inhibition of growth is measured photometrically 3 to 4 days after application. The following compounds at 20 ppm in the applied formulation give at least 80% disease control in this test when compared to untreated control under the same conditions, which show extensive disease development.

Row | Compound | pest or weed control at 200 ppm [1] | inhibition of growth at 20 ppm [2]
1 | CC1(C)CC(=O)N(Cc2ccc(-c3noc(C(F)(F)F)n3)s2)O1 [Compound 1.3, 5,5-dimethyl-2-[[5-[5-(trifluoromethyl)-1,2,4-oxadiazol-3-yl]-2-thienyl]methyl] isoxazolidin-3-one] | ≥ 80% | ≥ 80%
2 | Cc1cnn(Cc2ccc(-c3noc(C(F)(F)F)n3)s2)c1 [Compound 1.5, 3-[5-[(4-methylpyrazol-1-yl)methyl]-2-thienyl]-5-(trifluoromethyl)-1,2,4-oxadiazole] | ≥ 80% | ≥ 80%
3 | FC(F)(F)c1nc(-c2ccc(Cn3cccn3)s2)no1 [Compound 1.7, 3-[5-(pyrazol-1-ylmethyl)-2-thienyl]-5-(trifluoromethyl)-1,2,4-oxadiazole] | ≥ 80% | ≥ 80%
4 | FC(F)(F)c1nc(-c2ccc(Cn3nnnc3-c3ccccc3Br)s2)no1 [Compound 1.10, 3-[5-[[5-(2-bromophenyl)tetrazol-1-yl]methyl]-2-thienyl]-5-(trifluoromethyl)-1,2,4-oxadiazole] | ≥ 80% | ≥ 80%
5 | Fc1cnn(Cc2ccc(-c3noc(C(F)(F)F)n3)s2)c1 [Compound 1.12, 3-[5-[(4-fluoropyrazol-1-yl)methyl]-2-thienyl]-5-(trifluoromethyl)-1,2,4-oxadiazole] | ≥ 80% | ≥ 80%
6 | FC(F)(F)c1nc(-c2ccc(CN3CCCC3)s2)no1 [Compound 1.15, 3-[5-(pyrrolidin-1-ylmethyl)-2-thienyl]-5-(trifluoromethyl)-1,2,4-oxadiazole] |  | ≥ 80%
7 | FC(F)(F)c1nc(-c2ccc(CN3CCOCC3)s2)no1 [Compound 1.18, 4-[[5-[5-(trifluoromethyl)-1,2,4-oxadiazol-3-yl]-2-thienyl]methyl]morpholine] | ≥ 80% | ≥ 80%
8 | FC(F)(F)c1nc(-c2ccc(CN3CCC3)s2)no1 [Compound 1.20, 3-[5-(azetidin-1-ylmethyl)-2-thienyl]-5-(trifluoromethyl)-1,2,4-oxadiazole] |  | ≥ 80%
9 | Cc1cccc(=O)n1Cc1cc(-c2noc(C(F)(F)F)n2)cs1 [Compound 1.27, 6-methyl-1-[[4-[5-(trifluoromethyl)-1,2,4-oxadiazol-3-yl]-2-thienyl]methyl]pyridin-2-one] |  | ≥ 80%
10 | CC1(C)CC(=O)N(Cc2cc(-c3noc(C(F)(F)F)n3)cs2)O1 [Compound 1.28, 5,5-dimethyl-2-[[4-[5-(trifluoromethyl)-1,2,4-oxadiazol-3-yl]-2-thienyl]methyl] isoxazolidin-3-one] |  | ≥ 80%
11 | O=S1(=O)CCCN1Cc1cc(-c2noc(C(F)(F)F)n2)cs1 [Compound 1.29, 2-[[4-[5-(trifluoromethyl)-1,2,4-oxadiazol-3-yl]-2-thienyl]methyl]-1,2-thiazolidine 1,1-dioxide] |  | ≥ 80%
12 | O=C1CCCCN1Cc1cc(-c2noc(C(F)(F)F)n2)cs1 [Compound 1.31, 1-[[4-[5-(trifluoromethyl)-1,2,4-oxadiazol-3-yl]-2-thienyl]methyl]piperidin-2-one] |  | ≥ 80%
13 | CC(c1ccc(-c2noc(C(F)(F)F)n2)s1)n1cc(C(=O)NC2CCCCC2)cn1 (stereo not shown) [Compound 1.71, N-cyclohexyl-1-[1-[5-[5-(trifluoromethyl)-1,2,4-oxadiazol-3-yl]-2-thienyl]ethyl]pyrazole-4-carboxamide] | ≥ 80% | ≥ 80%
14 | O=C(Nc1ccccc1)c1cnn(Cc2ccc(-c3noc(C(F)(F)F)n3)s2)c1 [Compound 1.115, N-phenyl-1-[[5-[5-(trifluoromethyl)-1,2,4-oxadiazol-3-yl]-2-thienyl]methyl]pyrazole-4-carboxamide] | ≥ 80% | ≥ 80%
15 | O=C(NC1CCCCC1)c1ncn(Cc2ccc(-c3noc(C(F)(F)F)n3)s2)n1 [Compound 1.149, N-cyclohexyl-1-[[5-[5-(trifluoromethyl)-1,2,4-oxadiazol-3-yl]-2-thienyl]methyl]-1,2,4-triazole-3-carboxamide] | ≥ 80% | ≥ 80%
16 | CCC(C)NC(=O)c1ccnn1Cc1ccc(-c2noc(C(F)(F)F)n2)s1 (stereo not shown) [Compound 1.155, N-sec-butyl-2-[[5-[5-(trifluoromethyl)-1,2,4-oxadiazol-3-yl]-2-thienyl]methyl]pyrazole-3-carboxamide] | ≥ 80% | ≥ 80%
17 | CC(C)(C)CNC(=O)c1ccnn1Cc1ccc(-c2noc(C(F)(F)F)n2)s1 [Compound 1.156, N-(2,2-dimethylpropyl)-2-[[5-[5-(trifluoromethyl)-1,2,4-oxadiazol-3-yl]-2-thienyl]methyl]pyrazole-3-carboxamide] | ≥ 80% | ≥ 80%
18 | CC(C)NC(=O)c1ccnn1Cc1ccc(-c2noc(C(F)(F)F)n2)s1 [Compound 1.157, N-isopropyl-2-[[5-[5-(trifluoromethyl)-1,2,4-oxadiazol-3-yl]-2-thienyl]methyl]pyrazole-3-carboxamide] | ≥ 80% | ≥ 80%
19 | O=C(NC1CCCCC1)c1ccnn1Cc1ccc(-c2noc(C(F)(F)F)n2)s1 [Compound 1.159, N-cyclohexyl-2-[[5-[5-(trifluoromethyl)-1,2,4-oxadiazol-3-yl]-2-thienyl]methyl]pyrazole-3-carboxamide] | ≥ 80% | ≥ 80%
20 | O=C(Nc1ccccc1)c1ccnn1Cc1ccc(-c2noc(C(F)(F)F)n2)s1 [Compound 1.162, N-phenyl-2-[[5-[5-(trifluoromethyl)-1,2,4-oxadiazol-3-yl]-2-thienyl]methyl]pyrazole-3-carboxamide] | ≥ 80% | ≥ 80%
21 | O=C(NCc1ccccc1)c1ccnn1Cc1ccc(-c2noc(C(F)(F)F)n2)s1 [Compound 1.163, N-benzyl-2-[[5-[5-(trifluoromethyl)-1,2,4-oxadiazol-3-yl]-2-thienyl]methyl]pyrazole-3-carboxamide] | ≥ 80% | ≥ 80%
22 | O=C(NC1CCCC1)c1ccnn1Cc1ccc(-c2noc(C(F)(F)F)n2)s1 [Compound 1.165, N-cyclopentyl-2-[[5-[5-(trifluoromethyl)-1,2,4-oxadiazol-3-yl]-2-thienyl]methyl]pyrazole-3-carboxamide] | ≥ 80% | ≥ 80%
23 | CC(C)(C)NC(=O)c1ccnn1Cc1ccc(-c2noc(C(F)(F)F)n2)s1 [Compound 1.167, N-tert-butyl-2-[[5-[5-(trifluoromethyl)-1,2,4-oxadiazol-3-yl]-2-thienyl]methyl]pyrazole-3-carboxamide] | ≥ 80% | ≥ 80%
